This note sets out measurements from ChEMBL document CHEMBL1201862, “PubChem BioAssay data set” (2004).

What is called EC50 is the concentration at which the effect is half-maximal. In general, IC50 refers to the point on the concentration scale where inhibition reaches its midpoint. One may read the AC50 as the midpoint of the concentration-response curve, whichever way the signal moves. One may read the Ki as the equilibrium dissociation constant of an inhibitor or competing ligand from its target.

In assay [1] the target is Sphingosine 1-phosphate receptor 2 (Homo sapiens, UniProt O95136). Description: Late-stage fluorescence-based dose-response cell-based counterscreen assay to identify agonists of the Sphingosine 1-Phosphate Receptor 3 (S1P3): Sphingosine 1-Phosphate Receptor 2 (S1P2) agonist assay. The class given is functional. A general note: The purpose of a counterscreen is to sort out artefacts and off-target activity.

For assay [2], the target named is Sphingosine 1-phosphate receptor 4 (Homo sapiens, UniProt O95977). The assay is described as follows: Late-stage fluorescence-based dose-response cell-based counterscreen assay to identify agonists of the Sphingosine 1-Phosphate Receptor 3 (S1P3): Sphingosine 1-Phosphate Receptor 4 (S1P4) agonist assay. The class given is functional.
The next assay relates to CHO. The assay is described as follows: CHO cell viability loss, potency – luminescence, cytotoxicity control for TLR9-MyD88 binding inhibitor project, dose response (AID 588339).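 Note: CHO cells stably coexpressing TLR9 and MyD88 fusions from primary screen; compound exposure lasted 48 hours before viability readout.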 The note with it: Cricetulus griseus. The class given is functional, cell-based, hamster.
For assay [3], the target named is T1, Insulin-degrading enzyme (Homo sapiens, UniProt P14735). The assay is described as follows: recombinant IDE activation, cell-free – biochemical, fluorescence polarization, counter-screen for IDE activator project, dose response (AID 588681). Background: Fluorescence polarisation rises when a labelled molecule tumbles more slowly, as on binding a larger partner.

In assay [4] the test system is HEK293. The assay is described as follows: optical interference in Abeta FP readout, dose response, artefact control for IDE activator project, biochemical, fluorescence polarization (AID 588442). Type of assay: functional, cell-based. The note with it: Homo sapiens.
The target of another assay is Beta Lactamase (Pseudomonas aeruginosa, UniProt Q932Y6). The assay is described as follows: BLA reporter interference, concentration series – BLA reporter cells, FRET fluorescence, artefact control for TLR9-MyD88 binding inhibitor project, dose response (AID 588341).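 Note: cell based assay in CHO-K1 cells stably expressing beta-lactamase.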 The class given is cell-based.
For assay [5], the target named is T1, Insulin-degrading enzyme. The assay is described as follows: cellular IDE activation of Abeta substrate cleavage – fluorescence polarization, HEK cells, dose response (AID 588439). Type of assay: functional, cell-based.
In assay [6] the test system is HEK293. The assay is described as follows: membrane integrity loss in HEK cells – cell-based, fluorescence, cytotoxicity control for IDE activator project, dose response (AID 588440).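 Note: cytotoxicity by LDH release measuring loss of membrane integrity.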 Type of assay: functional. The note with it: Homo sapiens.
The nature of assay [7]: Luminescence Cell-Based Dose Retest to Confirm Inhibitors of Cancer Stem Cells. [Related pubchem assays (depositor defined):AID2717, AID2721]. The note with it: Homo sapiens. The class given is functional.
Assay [8] has as its target Melanin-concentrating hormone receptor 1 (Homo sapiens, UniProt Q99705). The assay is described as follows: Late-stage fluorescence-based counterscreen for antagonists of the G-protein coupled receptor 7 (GPR7): cell-based dose response assay to identify antagonists of the melanin-concentrating hormone receptor 1 (MCHR1) Set 5. Type of assay: functional.
Assay [9] has as its target Neuropeptides B/W receptor type 1 (Homo sapiens, UniProt P48145). The assay is described as follows: human NPBW1 receptor blockade, IC50 – cell-based, fluorescence, dose response, set 5, late-stage follow-up (AID 588566). The class given is functional.
The target in assay [10] is Interleukin-1 receptor-associated kinase 4 (Homo sapiens, UniProt Q9NWZ3). Type of assay: functional.
In assay [11] the target is Mitogen-activated protein kinase kinase kinase kinase 5 (Homo sapiens, UniProt Q9Y4K4). The class given is functional.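 Note: measured as one member of a kinome-spanning kinase panel.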
The target of assay [12] is MAP kinase-interacting serine/threonine-protein kinase 2 (Homo sapiens, UniProt Q9HBH9). Type of assay: functional.
Assay [13] concerns the target Serine/threonine-protein kinase PAK 1 (Homo sapiens, UniProt Q13153). Type of assay: functional.
Assay [14] has as its target Mitogen-activated protein kinase kinase kinase kinase 4 (Homo sapiens, UniProt O95819). Type of assay: functional.
Assay [15] concerns the target Dual specificity protein kinase CLK4 (Homo sapiens, UniProt Q9HAZ1). Type of assay: functional.
Assay [16] addresses T2, Sentrin-specific protease 6 (Homo sapiens, UniProt Q9GZR1).
T2 sequence (Q9GZR1 whole entry): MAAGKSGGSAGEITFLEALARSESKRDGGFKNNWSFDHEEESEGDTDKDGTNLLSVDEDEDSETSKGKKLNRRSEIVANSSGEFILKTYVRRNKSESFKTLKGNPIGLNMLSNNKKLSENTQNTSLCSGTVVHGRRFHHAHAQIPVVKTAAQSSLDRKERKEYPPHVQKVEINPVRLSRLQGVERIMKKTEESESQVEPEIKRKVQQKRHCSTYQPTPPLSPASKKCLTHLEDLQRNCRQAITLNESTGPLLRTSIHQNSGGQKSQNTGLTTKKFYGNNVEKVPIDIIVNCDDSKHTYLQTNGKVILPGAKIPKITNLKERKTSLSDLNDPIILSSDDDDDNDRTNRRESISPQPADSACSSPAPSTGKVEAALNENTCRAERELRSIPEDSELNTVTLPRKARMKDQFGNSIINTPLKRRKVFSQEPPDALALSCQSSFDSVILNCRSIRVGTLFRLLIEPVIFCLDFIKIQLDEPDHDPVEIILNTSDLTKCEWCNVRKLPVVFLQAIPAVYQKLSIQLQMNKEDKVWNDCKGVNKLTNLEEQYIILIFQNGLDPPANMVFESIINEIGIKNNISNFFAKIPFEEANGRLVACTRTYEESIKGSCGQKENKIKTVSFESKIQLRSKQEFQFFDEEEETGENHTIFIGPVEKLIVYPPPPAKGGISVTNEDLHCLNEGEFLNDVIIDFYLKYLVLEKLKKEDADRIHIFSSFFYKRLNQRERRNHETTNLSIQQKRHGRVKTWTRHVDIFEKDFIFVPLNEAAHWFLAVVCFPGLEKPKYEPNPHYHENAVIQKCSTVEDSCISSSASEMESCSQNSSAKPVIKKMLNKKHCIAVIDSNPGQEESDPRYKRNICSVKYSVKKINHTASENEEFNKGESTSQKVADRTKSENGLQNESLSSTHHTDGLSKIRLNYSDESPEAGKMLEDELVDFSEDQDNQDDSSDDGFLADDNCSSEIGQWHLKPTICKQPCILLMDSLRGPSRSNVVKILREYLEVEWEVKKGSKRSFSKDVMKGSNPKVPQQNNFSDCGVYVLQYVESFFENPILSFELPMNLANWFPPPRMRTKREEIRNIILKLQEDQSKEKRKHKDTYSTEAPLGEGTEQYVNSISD
The assay is described as follows: inhibition of human SENP6 catalytic domain – biochemical, luminescence, set 2, SAR follow-up (AID 588598). The class given is functional.

The target of assay [17] is T2, Sentrin-specific protease 6. The assay is described as follows: SAR Analysis of small molecule inhibitors of Sentrin-specific protease 6 (SENP6) using a Luminescent assay. [Related pubchem assays (depositor defined):AID2582, AID2599]. Type of assay: functional.
Assay [18] addresses T3, Sentrin-specific protease 7 (Homo sapiens, UniProt Q9BQF6).
T3 sequence (Q9BQF6 whole entry): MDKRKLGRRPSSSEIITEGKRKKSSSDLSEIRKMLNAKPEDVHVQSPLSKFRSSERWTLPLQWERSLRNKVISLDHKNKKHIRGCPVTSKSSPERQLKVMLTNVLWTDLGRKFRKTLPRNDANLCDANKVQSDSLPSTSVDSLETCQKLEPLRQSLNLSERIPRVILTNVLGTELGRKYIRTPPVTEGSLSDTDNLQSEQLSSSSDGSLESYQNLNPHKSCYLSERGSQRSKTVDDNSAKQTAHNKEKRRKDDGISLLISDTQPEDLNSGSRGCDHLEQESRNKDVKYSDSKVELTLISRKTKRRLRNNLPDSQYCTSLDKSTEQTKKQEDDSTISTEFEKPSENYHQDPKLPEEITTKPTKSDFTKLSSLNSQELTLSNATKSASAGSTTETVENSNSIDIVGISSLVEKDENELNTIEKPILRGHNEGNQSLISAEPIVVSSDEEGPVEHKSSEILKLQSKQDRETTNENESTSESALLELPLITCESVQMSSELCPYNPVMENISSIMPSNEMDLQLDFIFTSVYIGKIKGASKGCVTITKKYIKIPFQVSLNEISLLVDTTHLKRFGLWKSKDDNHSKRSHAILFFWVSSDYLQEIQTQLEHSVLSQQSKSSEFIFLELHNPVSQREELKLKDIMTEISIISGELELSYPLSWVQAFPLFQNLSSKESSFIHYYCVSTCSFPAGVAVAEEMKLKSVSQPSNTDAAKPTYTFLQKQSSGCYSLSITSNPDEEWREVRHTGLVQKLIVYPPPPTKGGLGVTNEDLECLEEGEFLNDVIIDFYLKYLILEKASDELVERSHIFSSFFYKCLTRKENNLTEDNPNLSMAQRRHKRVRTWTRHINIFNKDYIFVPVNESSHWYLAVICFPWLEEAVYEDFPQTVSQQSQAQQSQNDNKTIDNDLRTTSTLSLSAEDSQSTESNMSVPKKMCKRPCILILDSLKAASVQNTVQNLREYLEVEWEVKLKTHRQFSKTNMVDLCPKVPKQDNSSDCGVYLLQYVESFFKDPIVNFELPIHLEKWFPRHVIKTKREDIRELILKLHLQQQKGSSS
The assay is described as follows: inhibition of human SENP7 cleavage activity – biochemical, luminescence, set 2, SAR follow-up (AID 588600). Type of assay: functional.

The target in assay [19] is T3, Sentrin-specific protease 7. Description: inhibition of human SENP7 cleavage activity – biochemical, luminescence, SAR follow-up (AID 504497). The class given is functional.
Assay [20] addresses T4, Sentrin-specific protease 8 (Homo sapiens, UniProt Q96LD8).
T4 sequence (Q96LD8 whole entry): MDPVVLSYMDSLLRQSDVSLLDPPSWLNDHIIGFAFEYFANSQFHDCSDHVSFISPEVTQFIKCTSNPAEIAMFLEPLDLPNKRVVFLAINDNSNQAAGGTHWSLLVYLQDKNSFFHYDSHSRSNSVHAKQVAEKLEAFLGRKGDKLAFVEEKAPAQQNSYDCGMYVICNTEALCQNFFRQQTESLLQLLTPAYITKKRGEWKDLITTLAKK
The assay is described as follows: inhibition of sentrin protease 8 – biochemical, luminescence, set 2, SAR follow-up (AID 588601). The class given is functional.

Assay [21] addresses T5, Caspase-3 (Homo sapiens, UniProt P42574).
T5 sequence (P42574 whole entry): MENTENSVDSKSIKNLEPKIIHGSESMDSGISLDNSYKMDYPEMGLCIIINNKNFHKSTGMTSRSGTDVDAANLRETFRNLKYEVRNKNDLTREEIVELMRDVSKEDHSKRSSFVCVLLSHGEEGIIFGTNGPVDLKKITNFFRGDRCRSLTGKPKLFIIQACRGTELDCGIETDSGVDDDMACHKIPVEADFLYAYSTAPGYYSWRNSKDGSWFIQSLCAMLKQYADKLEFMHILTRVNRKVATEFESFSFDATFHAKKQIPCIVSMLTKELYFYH
Description: SAR Analysis of small molecule inhibitors of Sentrin-specific proteases (SENPs) using a Caspase-3 Selectivity assay. [Related pubchem assays (depositor defined):AID2540, AID2599, AID434973, AID489001]. The class given is functional.

For assay [22], the target named is T5, Caspase-3. Description: inhibition of recombinant caspase-3 activity – biochemical, luminescence, set 2, selectivity assay for SENP protease inhibitor project, SAR follow-up (AID 588599). Type of assay: functional.
Assay [23] has as its target T4, Sentrin-specific protease 8. Description: inhibition of human SENP8 cleavage activity – biochemical, luminescence, SAR follow-up (AID 504501). The class given is functional.
The target of the next assay is Melanocortin receptor 4 (Homo sapiens, UniProt P32245). Description: inhibitors of MC4R cAMP signaling – cell-based, TR-FRET, biased antagonists, dose response (AID 602298).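 Note: antagonist potency against agonist-stimulated cAMP production.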 Type of assay: functional.
The target in assay [24] is T6, Fatty acid synthase (Homo sapiens, UniProt P49327). Description: inhibition of human FAS-TE enzyme activity – biochemical, kinetic fluorescence intensity, dose response (AID 624326).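 Note: rate of fluorescence rise from hydrolysis of a fluorogenic O-methyl fluorescein ester substrate.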 The class given is functional.
Assay [25] in a line: cAMP pathway inhibition in counterscreen cell line – TR-FRET cAMP detection, counter-screen for MC4R biased antagonist project, dose response (AID 602305).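 Note: U2OS cells stimulated with forskolin near its EC80 as the cAMP inducer; potency is for inhibition of forskolin-stimulated cAMP signaling.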 The class given is functional, cell-based.
Assay [26] deals with T6, Fatty acid synthase. Description: inhibition of human FAS-TE enzyme activity – biochemical, endpoint fluorescence intensity, uHTS hits, dose response (AID 624327).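 Note: fluorescence from hydrolysis of an O-methyl fluorescein acyl ester substrate by the enzyme.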 Type of assay: functional.

Calls of active or inactive are those of the source. Where only a bound is given, the exact number is not on record here.
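Throughout, for AC50: cells exposed to compound for roughly 70 hours or longer before luminescence read.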

T1 sequence (P14735 whole entry): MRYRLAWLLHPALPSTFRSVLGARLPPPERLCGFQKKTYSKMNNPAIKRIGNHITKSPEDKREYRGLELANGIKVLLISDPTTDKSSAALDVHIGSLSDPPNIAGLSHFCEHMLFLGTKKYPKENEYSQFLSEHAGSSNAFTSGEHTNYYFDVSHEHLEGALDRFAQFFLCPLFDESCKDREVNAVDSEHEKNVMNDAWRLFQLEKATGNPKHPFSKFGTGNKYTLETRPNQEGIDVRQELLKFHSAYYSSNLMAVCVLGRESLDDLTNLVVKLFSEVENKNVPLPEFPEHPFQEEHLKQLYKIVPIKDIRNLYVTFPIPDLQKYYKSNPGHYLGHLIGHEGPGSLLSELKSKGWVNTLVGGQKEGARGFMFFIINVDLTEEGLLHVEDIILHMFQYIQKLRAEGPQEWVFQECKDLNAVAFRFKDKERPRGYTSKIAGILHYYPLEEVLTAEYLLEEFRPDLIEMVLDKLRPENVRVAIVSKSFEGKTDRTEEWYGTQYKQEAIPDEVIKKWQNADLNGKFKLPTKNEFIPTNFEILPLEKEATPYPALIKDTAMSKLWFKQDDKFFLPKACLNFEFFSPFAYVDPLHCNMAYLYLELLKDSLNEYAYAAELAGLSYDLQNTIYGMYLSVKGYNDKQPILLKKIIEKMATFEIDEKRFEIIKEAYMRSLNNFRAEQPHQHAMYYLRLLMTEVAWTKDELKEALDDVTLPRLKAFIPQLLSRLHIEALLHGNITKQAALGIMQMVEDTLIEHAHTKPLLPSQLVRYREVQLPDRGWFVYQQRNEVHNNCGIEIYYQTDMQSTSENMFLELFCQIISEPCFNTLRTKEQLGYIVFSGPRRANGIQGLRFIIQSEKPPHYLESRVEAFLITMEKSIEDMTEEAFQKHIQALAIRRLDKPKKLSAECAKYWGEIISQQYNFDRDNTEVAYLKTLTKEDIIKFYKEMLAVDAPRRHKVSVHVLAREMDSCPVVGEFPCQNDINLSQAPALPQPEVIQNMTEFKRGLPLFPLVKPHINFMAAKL
T6 sequence (P49327 whole entry): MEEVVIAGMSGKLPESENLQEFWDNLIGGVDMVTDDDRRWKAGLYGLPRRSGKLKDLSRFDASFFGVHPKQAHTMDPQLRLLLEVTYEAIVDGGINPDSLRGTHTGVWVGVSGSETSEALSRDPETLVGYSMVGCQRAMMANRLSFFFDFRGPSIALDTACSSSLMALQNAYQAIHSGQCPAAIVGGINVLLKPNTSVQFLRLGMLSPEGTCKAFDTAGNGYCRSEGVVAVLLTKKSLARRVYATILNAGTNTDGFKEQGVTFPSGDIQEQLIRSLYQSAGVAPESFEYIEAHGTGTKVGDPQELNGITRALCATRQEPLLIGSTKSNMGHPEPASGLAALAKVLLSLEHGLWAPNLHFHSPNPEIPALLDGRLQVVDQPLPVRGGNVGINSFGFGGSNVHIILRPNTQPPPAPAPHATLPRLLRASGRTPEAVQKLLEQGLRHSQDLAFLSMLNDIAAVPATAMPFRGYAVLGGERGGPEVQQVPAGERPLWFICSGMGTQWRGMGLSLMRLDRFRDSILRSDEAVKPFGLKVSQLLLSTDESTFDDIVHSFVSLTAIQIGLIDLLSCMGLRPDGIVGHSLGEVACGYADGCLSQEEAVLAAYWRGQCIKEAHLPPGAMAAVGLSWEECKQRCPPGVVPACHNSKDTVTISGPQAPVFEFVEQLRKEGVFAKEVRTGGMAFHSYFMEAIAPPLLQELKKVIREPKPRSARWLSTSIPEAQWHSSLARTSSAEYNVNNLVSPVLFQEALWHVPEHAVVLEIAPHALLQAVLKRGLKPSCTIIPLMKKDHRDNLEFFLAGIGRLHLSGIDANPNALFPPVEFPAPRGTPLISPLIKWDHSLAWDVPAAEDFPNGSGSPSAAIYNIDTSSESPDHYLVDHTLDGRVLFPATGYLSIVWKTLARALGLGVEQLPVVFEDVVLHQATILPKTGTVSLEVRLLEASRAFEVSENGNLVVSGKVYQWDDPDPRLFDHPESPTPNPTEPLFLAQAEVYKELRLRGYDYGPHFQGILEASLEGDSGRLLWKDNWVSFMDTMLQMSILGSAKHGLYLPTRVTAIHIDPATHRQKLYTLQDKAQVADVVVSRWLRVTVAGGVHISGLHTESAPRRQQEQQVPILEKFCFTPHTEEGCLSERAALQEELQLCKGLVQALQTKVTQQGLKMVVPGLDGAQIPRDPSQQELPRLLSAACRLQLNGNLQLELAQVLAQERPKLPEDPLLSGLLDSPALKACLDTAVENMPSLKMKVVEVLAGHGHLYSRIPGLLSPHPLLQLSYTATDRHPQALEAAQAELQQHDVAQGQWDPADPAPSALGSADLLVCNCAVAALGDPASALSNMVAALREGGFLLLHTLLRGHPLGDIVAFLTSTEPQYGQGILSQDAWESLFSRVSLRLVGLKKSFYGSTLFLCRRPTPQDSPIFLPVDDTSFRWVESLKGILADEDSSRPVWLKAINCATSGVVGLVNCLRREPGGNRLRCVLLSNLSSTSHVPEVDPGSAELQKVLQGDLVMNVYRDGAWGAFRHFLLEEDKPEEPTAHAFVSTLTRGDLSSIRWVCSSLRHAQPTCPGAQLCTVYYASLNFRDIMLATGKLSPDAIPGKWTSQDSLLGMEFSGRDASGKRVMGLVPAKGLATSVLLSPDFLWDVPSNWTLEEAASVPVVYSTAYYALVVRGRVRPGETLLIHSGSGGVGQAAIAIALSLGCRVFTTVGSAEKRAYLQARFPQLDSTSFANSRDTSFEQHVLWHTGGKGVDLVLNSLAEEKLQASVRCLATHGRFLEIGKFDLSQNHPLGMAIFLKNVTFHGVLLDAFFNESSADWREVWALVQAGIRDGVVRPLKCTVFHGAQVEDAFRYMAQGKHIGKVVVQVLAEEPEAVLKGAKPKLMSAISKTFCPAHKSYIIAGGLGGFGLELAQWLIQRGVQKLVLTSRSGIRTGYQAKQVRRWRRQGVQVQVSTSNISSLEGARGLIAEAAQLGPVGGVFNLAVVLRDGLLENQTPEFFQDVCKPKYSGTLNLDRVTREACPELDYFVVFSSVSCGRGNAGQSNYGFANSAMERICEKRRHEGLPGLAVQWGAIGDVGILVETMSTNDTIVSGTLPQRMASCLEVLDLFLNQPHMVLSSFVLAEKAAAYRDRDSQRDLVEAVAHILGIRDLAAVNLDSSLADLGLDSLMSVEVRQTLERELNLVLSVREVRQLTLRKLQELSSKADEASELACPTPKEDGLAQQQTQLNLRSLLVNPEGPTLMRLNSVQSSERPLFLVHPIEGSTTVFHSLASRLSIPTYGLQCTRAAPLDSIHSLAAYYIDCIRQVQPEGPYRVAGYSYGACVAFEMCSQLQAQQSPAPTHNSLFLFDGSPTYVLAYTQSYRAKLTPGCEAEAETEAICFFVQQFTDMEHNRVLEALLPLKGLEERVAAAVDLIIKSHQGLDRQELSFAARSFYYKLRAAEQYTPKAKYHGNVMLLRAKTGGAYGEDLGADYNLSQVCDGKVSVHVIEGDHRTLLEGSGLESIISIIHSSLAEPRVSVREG
Mitogen-activated protein kinase kinase kinase kinase 5, sequence (Q9Y4K4 whole entry): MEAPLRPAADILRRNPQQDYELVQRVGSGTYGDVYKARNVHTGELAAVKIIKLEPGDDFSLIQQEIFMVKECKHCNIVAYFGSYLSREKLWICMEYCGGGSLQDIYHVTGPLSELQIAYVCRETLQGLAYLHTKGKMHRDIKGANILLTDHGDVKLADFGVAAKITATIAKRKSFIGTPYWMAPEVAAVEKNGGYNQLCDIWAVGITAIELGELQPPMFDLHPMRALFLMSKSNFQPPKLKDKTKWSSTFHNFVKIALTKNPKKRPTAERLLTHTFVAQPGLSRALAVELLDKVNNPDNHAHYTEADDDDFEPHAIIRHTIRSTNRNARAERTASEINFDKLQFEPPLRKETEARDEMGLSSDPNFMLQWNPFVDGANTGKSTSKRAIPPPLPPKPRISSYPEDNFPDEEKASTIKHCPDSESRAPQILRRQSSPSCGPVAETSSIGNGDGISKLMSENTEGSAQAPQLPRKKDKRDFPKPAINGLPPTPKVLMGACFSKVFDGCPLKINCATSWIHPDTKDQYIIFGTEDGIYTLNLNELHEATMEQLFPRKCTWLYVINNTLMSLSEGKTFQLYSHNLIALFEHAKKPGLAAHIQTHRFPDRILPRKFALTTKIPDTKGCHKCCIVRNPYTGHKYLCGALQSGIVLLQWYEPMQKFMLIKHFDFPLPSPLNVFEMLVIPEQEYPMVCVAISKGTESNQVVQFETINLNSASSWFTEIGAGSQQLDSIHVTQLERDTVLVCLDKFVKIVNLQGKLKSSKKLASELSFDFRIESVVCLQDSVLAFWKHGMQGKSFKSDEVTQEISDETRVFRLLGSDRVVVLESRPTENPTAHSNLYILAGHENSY
Beta Lactamase, sequence (Q932Y6 whole entry): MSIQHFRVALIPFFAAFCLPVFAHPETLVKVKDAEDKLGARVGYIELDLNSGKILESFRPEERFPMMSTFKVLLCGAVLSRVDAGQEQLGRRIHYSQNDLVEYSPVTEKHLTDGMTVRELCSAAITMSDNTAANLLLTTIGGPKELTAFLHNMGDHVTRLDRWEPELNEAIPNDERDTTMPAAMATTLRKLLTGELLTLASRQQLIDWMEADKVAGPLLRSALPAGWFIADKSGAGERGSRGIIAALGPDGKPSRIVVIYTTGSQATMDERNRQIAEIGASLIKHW
Melanin-concentrating hormone receptor 1, sequence (Q99705 whole entry): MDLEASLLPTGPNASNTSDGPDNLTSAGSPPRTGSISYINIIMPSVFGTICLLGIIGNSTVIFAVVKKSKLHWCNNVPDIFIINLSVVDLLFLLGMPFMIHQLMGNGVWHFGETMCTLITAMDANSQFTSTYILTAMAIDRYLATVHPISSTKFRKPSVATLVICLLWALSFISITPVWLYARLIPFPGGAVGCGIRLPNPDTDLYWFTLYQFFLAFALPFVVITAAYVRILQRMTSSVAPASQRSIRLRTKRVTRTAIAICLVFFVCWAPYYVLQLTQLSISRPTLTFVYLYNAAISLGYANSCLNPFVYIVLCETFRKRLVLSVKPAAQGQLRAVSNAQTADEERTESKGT

For the molecule `CCCc1cc(C(=O)NC2CCCCC2)no1`, the EC50 in [1] and in assay [2] was > 50 µM (inactive) in each case.

Turning to `CCCCCCSc1cc(-c2nc3cnccn3c2NCCCC)ccc1OC`, the IC50 is 21.2 µM (inactive) in the assay on CHO, 7.42 µM (active) on Beta Lactamase and 33.6 µM (inactive) in the assay on HEK293 [6]. Also, the EC50 at Insulin-degrading enzyme [3] was > 54.7 µM (inactive); with HEK293 [4], > 56 µM (inactive); at Insulin-degrading enzyme [5], 13.9 µM (inactive). Also, the AC50 in assay [7] was 4.56 µM (active).

As for `CCOc1ccc(Oc2c(S(C)(=O)=O)cnn(Cc3cccc4ccccc34)c2=O)cc1`, the 50% inhibitory concentration (IC50) is 0.804 µM (active) in assay [8] and 2.55 µM (active) in [9].

On to `CC(=O)c1cccc(-c2cnc3ccccc3c2)c1`, for which the Ki in [10] is > 10 µM (inactive); in assay [11], 1 µM (active); in assay [12] it was 6.31 µM (active); in assay [13], > 10 µM (inactive); in [14] it was 1.26 µM (active); in assay [15], 3.98 µM (active).

As for `O=C(Nc1nc2c(F)cccc2s1)c1cccs1`, the IC50 in [16] is 3.02 µM (active); in assay [17], 3.5 µM (active); in assay [18], 2.7 µM (active); in assay [19], 2 µM (active); in assay [20], 2.66 µM (active); at Caspase-3 [21] it was 3.6 µM (active). For the same molecule, the IC50 was 3.68 µM (active) on Caspase-3 [22] and 4.1 µM (active) in assay [23].

On to `O=C(Oc1ccccc1C(=O)Nc1ccccc1)c1ccc(Br)c([N+](=O)[O-])c1`, for which the IC50 at Melanocortin receptor 4 is > 64.6 µM (inactive); on Fatty acid synthase [24] it was 5.97 µM (active); in [25], > 64.6 µM (inactive); on Fatty acid synthase [26], 4.66 µM (active).
